Assay results from patent US20160311812A1, “ADENOSINE A1 AGONISTS AS MEDICAMENTS FOR KIDNEY DISORDERS” (BAYER PHARMA AKTIENGESELLSCHAFT, priority 2013, published 2016).

Key:
[1] = system: 5/6 nephrectomy rat model; experiment: Functional and structural renal dysfunction in 5/6 nephrectomized rats; assay type: in vivo; conditions: Group 3: SNX + 10 mg/kg body weight/day in drinking water, 4 weeks
Text: (§1) B-3. Effects of Partial A1 Agonists on Renal and Cardiac Function in 5/6 Nephrectomized Rats (Example 1 for Chronic Kidney Disorder)
(§2) 5/6 nephrectomy in the rat, in which one kidney and the renal cortex of the second kidney are surgically removed (=5/6 of functional kidney tissue) is an established animal model for interstitial renal fibrosis and chronic renal insufficiency [C. Fleck et al., “Suitability of 5/6 nephrectomy (5/6NX) for the induction of interstitial renal fibrosis in rats Influence of sex, strain, and surgical procedure”, Exp. Tox. Pathology 2006, 57, 195-205]. The model is characterized by progressive proteinuria, disturbed tubular electrolyte transport, a reduced glomerular filtration rate, an increase in urinary output, interstitial fibrosis with reactively occurring lymphocyte infiltrates, glomerulosclerosis and tubular atrophy. The level of proteinuria is a specific index of the renal function prognosis: the higher the proteinuria, the greater is the functional and structural kidney injury and therefore progression of chronic to terminal renal insufficiency (uraemia). During monitoring of therapy, e.g. with the ACE inhibitor enalapril, the course of proteinuria provides information on the functional and structural response to the therapy and thus on the renal function prognosis. As a result of the renal insufficiency and accumulation of umemic toxins, in the animals there is secondary development of a umemic cardiomyopathy, depending on the severity associated with hypertension, increased heart rate, reduced parasympathetic tone, myocardial, left-ventricular hypertrophy and fibrosis, diastolic dysfunction and an increased prevalence of arrhythmias [Svilerova et al. 2010 Physiol Res 59: S81-S88).
(§3) Procedure: male Wistar:WU rats (210-250 g) from Charles River had the left kidney and the renal cortex of the right kidney removed (=SNX) in one session; sham-operated rats served as control group (=SOP). The following groups, each with 12 rats per group, were investigated:
(§4) Group 2 SNX+placebo (60 g glycerol+100 g water+969 g PEG-400)
(§5) Group 3 SNX+10 mg/kg body weight/day enalapril (reference therapy, in the drinking water)
(§6) Group 4 SNX+0.1 mg/kg body weight/day partial A1 agonist EXAMPLE 1, p.o. in placebo
(§7) Group 5 SNX+1.0 mg/kg body weight/day partial A1 agonist EXAMPLE 1, p.o. in placebo
(§8) Group 6 SNX+0.3 mg/kg body weight/day partial A1 agonist EXAMPLE 4, p.o. in placebo
(§9) Group 7 SNX+3.0 mg/kg body weight/day partial A1 agonist EXAMPLE 4, p.o. in placebo
(§10) Three weeks after 5/6 nephrectomy, the rats developed manifest proteinuria, from this time point the rats were treated for a further four weeks corresponding to the groups stated above. At the end of the protocol, the following samples were obtained/measurements were carried out: eight-hour urine collection with determination of the concentration of hFABP in the urine by ELISA (Rat/Mouse h-FABP ELISA, Hycultbiotech), as marker for end organ damage, invasive measurement of the isoprenaline-induced increase (cumulatively 12.5 ng-250 ng/kg isoprenaline, i.v.) in systolic and diastolic left ventricular function, and TaqMan analyses of renal injury markers in the renal cortex.

[2] = system: unilaterally nephrectomized SHR; experiment: Functional and structural renal dysfunction in unilaterally nephrectomized spontaneously hypertensive rats; assay type: in vivo, rat; conditions: Group 3: UNX + 10 mg/kg body weight/day in drinking water, 4 weeks
Text: (§11) B-4. Effects of Partial A1 Agonists on Renal and Cardiac Function in Unilaterally Nephrectomized and Spontaneously Hypertensive Rats (Example 2 for Chronic Kidney Disorders)
(§12) Unilaterally nephrectomized, spontaneously hypertensive rats (SHR) are an established animal model for investigating the development and progression of hypertensive damage of the glomeruli in the remaining kidney [H. Kinuno et al., “Effects of uninephrectomy on renal structural properties in spontaneously hypertensive rats”, Clin and Exp Pharmacol and Physiol 2005, 32, 173-178]. […] Furthermore, renal excretion of substances usually eliminated in the urine, such as creatinine and urea, is reduced and the electrolyte metabolism is disturbed, the latter being associated with volume retention.
(§13) Procedure: male SHR rats (180-220 g) from Taconic had the left kidney removed in one session (=UNX). Normotensive Wistar Kyoto rats (WKY) from Taconic served as control. The following groups, each with 12 rats per group, were investigated:
(§14) Group 2 UNX+placebo (60 g glycerol+100 g water+969 g PEG-400)
(§15) Group 3 UNX+10 mg/kg body weight/day enalapril (reference therapy, in the drinking water)
(§16) Group 4 SNX+1.0 mg/kg body weight/day partial A1 EXAMPLE 1, p.o. in placebo
(§17) Group 5 SNX+3.0 mg/kg body weight/day partial A1 EXAMPLE 4, p.o. in placebo
(§18) Three weeks after unilateral nephrectomy, the SHRs developed manifest hypertensive damage of the glomeruli in the remaining kidney, from this time point on the rats were treated for a further four weeks corresponding to the groups given above. At the end of the protocol, the following samples were obtained/measurements were carried out: eight-hour urine collection, invasive measurement of systolic and diastolic left ventricular function, and TaqMan analyses of renal injury markers in the renal cortex.

[3] = system: unilaterally nephrectomized SHR; experiment: Functional and structural myocardial dysfunction in unilaterally nephrectomized spontaneously hypertensive rats; assay type: in vivo, rat; conditions: Group 3: UNX + 10 mg/kg body weight/day in drinking water, 4 weeks
Text: as §11, §12, §13, §14, §15, §16, §17, §18

[4] = system: 5/6 nephrectomy rat model; experiment: Left-ventricular diastolic dysfunction under isoprenaline infusion in 5/6 nephrectomized rats; assay type: in vivo; conditions: Group 3: SNX + 10 mg/kg body weight/day in drinking water, 4 weeks
Text: as §1, §2, §3, §4, §5, §6, §7, §8, §9, §10

## CCOC(=O)[C@H](CCc1ccccc1)N[C@@H](C)C(=O)N1CCC[C@H]1C(=O)O [enalapril, reference compound]
[1]
  P-urea: 15 ± 1 mmol/L
  U-creatinine: 1.6 ± 0.2 μmol/ml urine/kg BW/h
  U-protein: 0.25 ± 0.04 μmol/ml urine/kg BW/h
  U-sodium: 18 ± 3 μmol/ml urine/kg BW/h
  U-urea: 198 ± 22 μmol/ml urine/kg BW/h
  Urine volume: 2.8 ± 0.2 ml/kg BW/h
[1]; ELISA
  End organ injury marker concentration in the urine: hFABP: 377 ± 151 pg hFABP/ml urine/h
  End organ injury marker concentration in the urine: hFABP per creatinine: 83 ± 33 pg hFABP/μmol creatinine
[1]; renal cortex
  Kidney injury marker-1 [gene expression]: 27 ± 17 rel. expression
  Lipocalin-2 [gene expression]: 400 ± 236 rel. expression
  Osteopontin [gene expression]: 6226 ± 4107 rel. expression
[2]
  P-creatinine: 62 ± 1.6 mmol/L
  P-urea: 9.3 ± 0.4 mmol/L
  U-creatinine: 1.5 ± 0.3 μmol/ml urine/kg BW/h
  U-protein: 0.43 ± 0.07 μmol/ml urine/kg BW/h
  U-sodium: 30 ± 5 μmol/ml urine/kg BW/h
  U-urea: 153 ± 27 μmol/ml urine/kg BW/h
  Urine volume: 2.4 ± 0.2 ml/kg BW/h
[2]; renal cortex
  CYR61 [gene expression]: 460 ± 55 rel. expression
  Lipocalin-2 [gene expression]: 140 ± 23 rel. expression
[3]
  Diastolic blood pressure: 91 ± 5 mmHg
  Heart rate: 353 ± 7 beats/min
  Left ventricular hypertrophy (LVS/RV ratio, mg/mg): 3.7 ± 0.2 mg/mg
  Left-ventricular end-diastolic pressure: 5.4 ± 0.6 mmHg
  Left-ventricular pressure: 130 ± 5 mmHg
  Pressure decrease over time: −10130 ± 239 mmHg/s
  Pressure increase over time: 8114 ± 304 mmHg/s
  Systolic blood pressure: 132 ± 4 mmHg
[4]; isoprenaline 0 ng/kg body weight
  left-ventricular pressure decrease as a function of time: 6613 ± 226 mmHg/s
[4]; isoprenaline 12.5 ng/kg body weight
  left-ventricular pressure decrease as a function of time: 7972 ± 280 mmHg/s
[4]; isoprenaline 25 ng/kg body weight
  left-ventricular pressure decrease as a function of time: 8297 ± 285 mmHg/s
[4]; isoprenaline 50 ng/kg body weight
  left-ventricular pressure decrease as a function of time: 8705 ± 227 mmHg/s
[4]; isoprenaline 100 ng/kg body weight
  left-ventricular pressure decrease as a function of time: 9267 ± 177 mmHg/s
[4]; isoprenaline 250 ng/kg body weight
  left-ventricular pressure decrease as a function of time: 9359 ± 202 mmHg/s
